Data reported in patent publication US8859596B2, “Compounds as cannabinoid receptor ligands” (priority 2008, dated 2014).

Legend:
[1] = acute thermal, persistent, inflammatory, neuropathic pain models; cited from earlier work
human CB2 receptors = human CB2 receptors (Homo sapiens (Human), UniProt P34972); assay: human CB2 radioligand binding assay ([3H]CP 55,940 competition); settings: HEK293 membranes, 0.5 nM [3H]CP 55,940; read-out: human CB2 (Ki)
Summary of the method: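 Membranes from HEK293 cells stably expressing human CB2 (5 μg protein/well) competed against 0.5 nM [3H]CP 55,940 with five concentrations of test ligand (0.01 nM to 10 μM), pH 7.4 Tris buffer with BSA, 90 min at 30 °C. Filtration and scintillation counting; nonspecific binding with 10 μM unlabeled CP 55,940.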

rat CB2 [2] = target: T1, rat CB2 (Rattus norvegicus (Rat), UniProt Q9QZN9); assay: rat CB2 radioligand binding assay ([3H]CP 55,940 competition); settings: HEK293 membranes, 0.5 nM [3H]CP 55,940; read-out: rat CB2 (Ki)
Summary of the method: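 Membranes from HEK293 cells stably expressing rat CB2 (20 μg protein/well) competed with 0.5 nM [3H]CP 55,940 and five displacer concentrations, 45 min at 30° C in Tris/EDTA/MgCl2/BSA buffer pH 7.4. Filtration and scintillation counting; nonspecific binding with 10 μM unlabeled CP 55,940.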

rat CB2 [3] = target: T1, rat CB2; assay: CB2 cyclase functional assay (HitHunter cAMP); assay type: cell-based; settings: HEK cells, forskolin 18 μM
Protocol: (§1) The cyclase functional assays were performed using the HitHunter™ cAMP assay kit from DiscoveRx (Fremont, Calif.) according to vendor's protocol. Briefly, HEK cells expressing CB2 or CB1 receptors (rat or human) were detached using cell dissociation buffer (Invitrogen, Carlsbad, Calif.), dispersed and placed in suspension at 10,000 cells per well in 96 well plates prior to the assay. Cell suspensions were incubated at 37° C. for 20 min with variable concentrations of test ligands and or 10 μM CP 55,940-positive control in the presence of a fixed concentration of forskolin (18 μM for rat CB2 and 37 μM for rat CB1) in Dulbescco's phosphate-buffered saline (Invitrogen, Carlsbad, Calif.) supplemented with bovine serum albumin (0.01% final concentration). The reactions were terminated by the addition of lysis buffer and the luminescence was detected following the procedure according to the manufacturer's instructions. EC50 values were calculated using sigmoidal dose-response curve fitting from Prism (GraphPad).

rat CB1 = rat CB1 (Rattus norvegicus (Rat), UniProt P20272); assay: CB1 cyclase functional assay (HitHunter cAMP); assay type: cell-based; settings: HEK cells, forskolin 37 μM; read-out: rCB1 cyclase (EC50)
Protocol: as §1

[4] = neuropathic, incisional, chronic and acute inflammatory pain; cited from earlier work
rat = rat formalin model; cited from earlier work
[5] = tested on: β-amyloid-induced microglial activation; settings: in vitro; cited from earlier work
[6] = tested on: apolipoprotein E knockout mice; settings: low doses; cited from earlier work
mice = settings: cited from earlier work

T1 sequence (Q9QZN9 whole entry): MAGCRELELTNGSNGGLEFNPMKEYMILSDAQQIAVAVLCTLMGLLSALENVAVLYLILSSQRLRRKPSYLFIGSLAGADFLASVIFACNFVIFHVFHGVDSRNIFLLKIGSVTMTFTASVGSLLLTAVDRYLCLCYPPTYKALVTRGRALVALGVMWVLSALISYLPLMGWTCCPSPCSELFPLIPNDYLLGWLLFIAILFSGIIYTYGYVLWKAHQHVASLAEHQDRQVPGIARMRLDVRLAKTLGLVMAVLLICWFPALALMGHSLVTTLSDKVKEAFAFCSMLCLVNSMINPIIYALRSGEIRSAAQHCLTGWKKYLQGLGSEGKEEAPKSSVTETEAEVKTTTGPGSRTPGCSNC
Sequence of human CB2 receptors (P34972 whole entry): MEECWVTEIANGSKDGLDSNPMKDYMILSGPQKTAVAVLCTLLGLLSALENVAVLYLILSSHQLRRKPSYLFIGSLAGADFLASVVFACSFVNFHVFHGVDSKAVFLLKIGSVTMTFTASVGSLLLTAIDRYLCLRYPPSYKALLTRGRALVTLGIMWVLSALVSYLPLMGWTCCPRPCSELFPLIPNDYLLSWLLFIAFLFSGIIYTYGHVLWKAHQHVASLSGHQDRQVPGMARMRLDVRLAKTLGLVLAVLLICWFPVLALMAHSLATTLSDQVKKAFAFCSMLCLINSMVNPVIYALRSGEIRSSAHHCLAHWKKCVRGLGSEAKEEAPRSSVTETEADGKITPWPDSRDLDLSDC

Molecule | Ki (human CB2 receptors) | Ki (rat CB2 [2]) | EC50 (rat CB2 [3]) | EC50 (rat CB1) | other results
CN1CCCCC1Cn1cc(C(=O)c2cc([N+](=O)[O-])ccc2I)c2ccccc21 (stereo not drawn) [AM-1241] | – | – | – | – | analgesic efficacy [1]: robust analgesic efficacy
CC(C)(C)NOc1ccc(C(F)(F)F)cc1C(=O)/N=c1\sc(C(C)(C)C)nn1CC1CCC1 [Example 165, 2-[(tert-butylamino)oxy]-N-[(2Z)-5-tert-butyl-3-(cyclobutylmethyl)-1,3,4-thiadiazol-2(3H)-ylidene]-5-(trifluoromethyl)benzamide] | 0.0028 µM | 0.0008 µM | 0.00093 µM | 0.925 µM | –
CCCCn1nc(C(C)(C)C)s/c1=N\C(=O)c1cc(C(F)(F)F)ccc1ON=C(N)C(C)(C)C [Example 166, 2-({[1-amino-2,2-dimethylpropylidene]amino}oxy)-N-[(2Z)-3-butyl-5-tert-butyl-1,3,4-thiadiazol-2(3H)-ylidene]-5-(trifluoromethyl)benzamide] | 0.065 µM | 0.043 µM | 0.00314 µM | 6.96 µM | –
CCCCn1nc(C(C)(C)C)s/c1=N\C(=O)c1cc(C(F)(F)F)ccc1ON=C(C)C(F)(F)F [Example 172, N-[(2Z)-3-butyl-5-tert-butyl-1,3,4-thiadiazol-2(3H)-ylidene]-5-(trifluoromethyl)-2-({[2,2,2-trifluoro-1-methylethylidene]amino}oxy)benzamide] | 0.052 µM | 0.06 µM | 0.028 µM | > 27 µM | –
COc1ccc2c(c1)c(CCN1CCOCC1)c(C)n2C(=O)c1cccc(Cl)c1Cl [GW405833] | – | – | – | – | efficacy in pain models [4]: efficacious
CCCCCCC(C)(C)c1cc(OC)c([C@@H]2C=C(CO)[C@@H]3C[C@H]2C3(C)C)c(OC)c1 [HU-308] | – | – | – | – | antinociceptive response (rat): elicits an antinociceptive response
CCCC(C)(C)c1ccc2c(c1)OC(C)(C)[C@@H]1CC=C(C)C[C@@H]21 [JWH-133] | – | – | – | – | effect on β-amyloid-induced microglial activation and neurotoxicity [5]: abrogated β-amyloid-induced microglial activation and neurotoxicity
(−)-Δ^9-Tetrahydrocannabinol [THC] | – | – | – | – | effect on progression of atherosclerotic lesions [6]: slowed the progression of atherosclerotic lesions
SR144528 | – | – | – | – | effect on osteoclast activity and ovariectomy-induced bone loss (mice): inhibit osteoclast activity and reverse ovariectomy-induced bone loss
